Experimental data reported in article PMC11240139, “Exploring the antitumor potential of novel quinoline derivatives via tubulin polymerization inhibition in breast cancer; design, synthesis and molecular docking” (RSC Advances, 2024).

How the values were obtained:
TK-10 (renal cancer) = experiment: NCI-60 SRB cytotoxicity screen; type: cell-based; conditions: Homo sapiens; TK-10, single dose 10 μM; read-out: growth inhibition (GI%)
HCC-2998 (colon cancer) = experiment: NCI-60 SRB cytotoxicity screen; type: cell-based; conditions: Homo sapiens; HCC-2998, single dose 10 μM; read-out: growth inhibition (GI%)
786-0 (renal cancer) = experiment: NCI-60 SRB cytotoxicity screen; type: cell-based; conditions: Homo sapiens; 786-0, single dose 10 μM; read-out: growth inhibition (GI%)
[1] = system: NCI-H226 (non-small cell lung cancer); experiment: NCI-60 SRB cytotoxicity screen; type: cell-based; conditions: Homo sapiens; NCI-H226, single dose 10 μM; read-out: growth inhibition (GI%)
PC-3 (prostate cancer) = experiment: NCI-60 SRB cytotoxicity screen; type: cell-based; conditions: PC-3, single dose 10 μM; read-out: growth inhibition (GI%)
DU-145 (prostate cancer) = experiment: NCI-60 SRB cytotoxicity screen; type: cell-based; conditions: Homo sapiens; DU-145, single dose 10 μM; read-out: growth inhibition (GI%)
RPMI-8226 (leukemia) = experiment: NCI-60 SRB cytotoxicity screen; type: cell-based; conditions: Homo sapiens; RPMI-8226, single dose 10 μM; read-out: growth inhibition (GI%)
[2] = system: HOP-92 (non-small cell lung cancer); experiment: NCI-60 SRB cytotoxicity screen; type: cell-based; conditions: Homo sapiens; HOP-92, single dose 10 μM; read-out: growth inhibition (GI%)
OVCAR-3 (ovarian cancer) = experiment: NCI-60 SRB cytotoxicity screen; type: cell-based; conditions: Homo sapiens; OVCAR-3, single dose 10 μM; read-out: growth inhibition (GI%)
HT29 (colon cancer) = experiment: NCI-60 SRB cytotoxicity screen; type: cell-based; conditions: Homo sapiens, HT-29; HT29, single dose 10 μM; read-out: growth inhibition (GI%)
A498 (renal cancer) = experiment: NCI-60 SRB cytotoxicity screen; type: cell-based; conditions: Homo sapiens; A498, single dose 10 μM; read-out: growth inhibition (GI%)
[3] = system: NCI/ADR-RES (ovarian cancer); experiment: NCI-60 SRB cytotoxicity screen; type: cell-based; conditions: Homo sapiens, single dose 10 μM, read-out: growth inhibition (GI%)
HCT-116 (colon cancer) = experiment: NCI-60 SRB cytotoxicity screen; type: cell-based; conditions: Homo sapiens; HCT-116, single dose 10 μM; read-out: growth inhibition (GI%)
M14 (melanoma) = experiment: NCI-60 SRB cytotoxicity screen; type: cell-based; conditions: Homo sapiens; M14, single dose 10 μM; read-out: growth inhibition (GI%)
LOX IMVI (melanoma) = experiment: NCI-60 SRB cytotoxicity screen; type: cell-based; conditions: Homo sapiens, single dose 10 μM, read-out: growth inhibition (GI%)
SNB-75 (CNS cancer) = experiment: NCI-60 SRB cytotoxicity screen; type: cell-based; conditions: Homo sapiens, SNB-75, SNB-75, single dose 10 μM; read-out: growth inhibition (GI%)
[4] = system: MDA-MB-231/ATCC (breast cancer); experiment: NCI-60 SRB cytotoxicity screen; type: cell-based; conditions: Homo sapiens, MDA-MB-231, read-out: growth inhibition (GI%);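 further: growth inhibition in percent at a single 10 µM dose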
SK-MEL-28 (melanoma) = experiment: NCI-60 SRB cytotoxicity screen; type: cell-based; conditions: Homo sapiens; SK-MEL-28, single dose 10 μM; read-out: growth inhibition (GI%)
KM12 (colon cancer) = experiment: NCI-60 SRB cytotoxicity screen; type: cell-based; conditions: Homo sapiens; KM12, single dose 10 μM; read-out: growth inhibition (GI%)
SF-295 (CNS cancer) = experiment: NCI-60 SRB cytotoxicity screen; type: cell-based; conditions: Homo sapiens; SF-295, single dose 10 μM; read-out: growth inhibition (GI%)
[5] = system: EKVX (non-small cell lung cancer); experiment: NCI-60 SRB cytotoxicity screen; type: cell-based; conditions: Homo sapiens, single dose 10 μM, read-out: growth inhibition (GI%)
COLO 205 (colon cancer) = experiment: NCI-60 SRB cytotoxicity screen; type: cell-based; conditions: Homo sapiens; COLO 205, single dose 10 μM; read-out: growth inhibition (GI%)
IGROV1 (ovarian cancer) = experiment: NCI-60 SRB cytotoxicity screen; type: cell-based; conditions: Homo sapiens, IGROV-1; IGROV1, single dose 10 μM; read-out: growth inhibition (GI%)
MOLT-4 (leukemia) = experiment: NCI-60 SRB cytotoxicity screen; type: cell-based; conditions: Homo sapiens; MOLT-4, single dose 10 μM; read-out: growth inhibition (GI%)
UACC-257 (melanoma) = experiment: NCI-60 SRB cytotoxicity screen; type: cell-based; conditions: Homo sapiens; UACC-257, single dose 10 μM; read-out: growth inhibition (GI%)
CAKI-1 (renal cancer) = experiment: NCI-60 SRB cytotoxicity screen; type: cell-based; conditions: Homo sapiens; CAKI-1, single dose 10 μM; read-out: growth inhibition (GI%)
MALME-3M (melanoma) = experiment: NCI-60 SRB cytotoxicity screen; type: cell-based; conditions: Homo sapiens, single dose 10 μM, read-out: growth inhibition (GI%)
SN12C (renal cancer) = experiment: NCI-60 SRB cytotoxicity screen; type: cell-based; conditions: Homo sapiens, single dose 10 μM, read-out: growth inhibition (GI%)
SR (leukemia) = experiment: NCI-60 SRB cytotoxicity screen; type: cell-based; conditions: single dose 10 μM, read-out: growth inhibition (GI%)
SW-620 (colon cancer) = experiment: NCI-60 SRB cytotoxicity screen; type: cell-based; conditions: Homo sapiens; SW-620, single dose 10 μM; read-out: growth inhibition (GI%)

Row | SMILES | inhibition at 10 µM (TK-10 (renal cancer)) [%] | inhibition at 10 µM (HCC-2998 (colon cancer)) [%] | inhibition at 10 µM (786-0 (renal cancer)) [%] | inhibition at 10 µM [1] [%] | inhibition at 10 µM (PC-3 (prostate cancer)) [%] | inhibition at 10 µM (DU-145 (prostate cancer)) [%] | inhibition at 10 µM (RPMI-8226 (leukemia)) [%] | inhibition at 10 µM [2] [%] | inhibition at 10 µM (OVCAR-3 (ovarian cancer)) [%] | inhibition at 10 µM (HT29 (colon cancer)) [%] | inhibition at 10 µM (A498 (renal cancer)) [%] | inhibition at 10 µM [3] [%] | inhibition at 10 µM (HCT-116 (colon cancer)) [%] | melting point [°C] | inhibition at 10 µM (M14 (melanoma)) [%] | inhibition at 10 µM (LOX IMVI (melanoma)) [%] | inhibition at 10 µM (SNB-75 (CNS cancer)) [%] | inhibition at 10 µM [4] [%] | inhibition at 10 µM (SK-MEL-28 (melanoma)) [%] | inhibition at 10 µM (KM12 (colon cancer)) [%] | also measured
1 | CCc1cccc2cc(C=CC(=O)c3cc(OC)c(OC)c(OC)c3)c(Cl)nc12 [Compound 3c, 3-(2-Chloro-8-ethylquinolin-3-yl)-1-(3,4,5-trimethoxyphenyl)prop-2-en-1-one] | < 10 | 63.8 | 41.7 | > 100 | 53.5 | 29 | 78.2 | 26.8 | > 100 | 77.4 | < 10 | 67.6 | 61.6 | 140 to 142 | 31.9 | 72 | 61.7 | 39.5 | 15 | 80.7 | inhibition at 10 µM (SF-295 (CNS cancer)): 31.3%; inhibition at 10 µM [5]: 17.1%; inhibition at 10 µM (COLO 205 (colon cancer)): 18.4%; inhibition at 10 µM (IGROV1 (ovarian cancer)): < 10%; inhibition at 10 µM (MOLT-4 (leukemia)): 49.9%; inhibition at 10 µM (UACC-257 (melanoma)): 43.6%; inhibition at 10 µM (CAKI-1 (renal cancer)): 38.7%; inhibition at 10 µM (MALME-3M (melanoma)): 14.8%; inhibition at 10 µM (SN12C (renal cancer)): 42.3%; inhibition at 10 µM (SR (leukemia)): 61.5%; inhibition at 10 µM (SW-620 (colon cancer)): 65.4%
2 | CCc1cccc2cc(-c3cc(-c4ccc(OC)c(OC)c4)[nH]c(=O)c3C#N)c(Cl)nc12 [Compound 4b, 4-(2-Chloro-8-ethylquinolin-3-yl)-6-(3,4-dimethoxyphenyl)-2-oxo-1,2-dihydropyridine-3-carbonitrile] | < 10 | < 10 | < 10 | < 10 | < 10 | < 10 | < 10 | 11.3 | < 10 | < 10 | < 10 | < 10 | < 10 | 280 to 282 | < 10 | < 10 | 29.6 | < 10 | < 10 | < 10 | inhibition at 10 µM (SF-295 (CNS cancer)): < 10%; inhibition at 10 µM [5]: 14.2%; inhibition at 10 µM (COLO 205 (colon cancer)): < 10%; inhibition at 10 µM (IGROV1 (ovarian cancer)): < 10%; inhibition at 10 µM (MOLT-4 (leukemia)): < 10%; inhibition at 10 µM (UACC-257 (melanoma)): < 10%; inhibition at 10 µM (CAKI-1 (renal cancer)): 39.2%; inhibition at 10 µM (MALME-3M (melanoma)): < 10%; inhibition at 10 µM (SN12C (renal cancer)): < 10%; inhibition at 10 µM (SR (leukemia)): < 10%; inhibition at 10 µM (SW-620 (colon cancer)): < 10%
3 | CCc1cccc2cc(-c3cc(-c4cc(OC)c(OC)c(OC)c4)[nH]c(=S)c3C#N)c(Cl)nc12 [Compound 5c, 4-(2-Chloro-8-ethylquinolin-3-yl)-2-thioxo-6-(3,4,5-trimethoxyphenyl)-1,2-dihydropyridine-3-carbonitrile] | < 10 | 33 | 27.9 | 63.3 | 48.9 | 32.3 | 63.1 | 77.4 | 16.9 | 20.4 | 18.8 | 28.5 | 27.1 | 279 to 281 | 31.2 | 38.3 | < 10 | 52.5 | < 10 | 37.2 | inhibition at 10 µM (SF-295 (CNS cancer)): 31%; inhibition at 10 µM [5]: 34.9%; inhibition at 10 µM (COLO 205 (colon cancer)): 12.7%; inhibition at 10 µM (IGROV1 (ovarian cancer)): 33.4%; inhibition at 10 µM (MOLT-4 (leukemia)): 61.2%; inhibition at 10 µM (UACC-257 (melanoma)): 20.1%; inhibition at 10 µM (CAKI-1 (renal cancer)): 69.8%; inhibition at 10 µM (MALME-3M (melanoma)): < 10%; inhibition at 10 µM (SN12C (renal cancer)): 39.7%; inhibition at 10 µM (SR (leukemia)): 49%; inhibition at 10 µM (SW-620 (colon cancer)): 10%
